Like-named read-outs stand apart in the source and are kept apart here.
Assays:
[1] = system: fat pads isolated from rats; experiment: Lipogenesis: esterified lipids and free fatty acids in fat pads isolated from rats; type: in vivo
Experimental: With (a) untreated (normal) control animals (rats), (b) diabetic rats, and (c) diabetic brazilin treated rats glucose oxidation and lipogenesis were investigated (by means of the esterified lipids and the free fatty acids). Diabetes was induced by intravenous administration of streptozotocin (40 mg/kg live weight). Brazilin was administered intraperitoneally for 15 days (100 mg/kg body weight). Within the same period the same volume of saline solution was administered to the untreated animals of the control group.
The effects of additional brazilin administration on lipogenesis were determined by means of the esterified lipids and free fatty acids formed from 1-^14 C-glucose. The measurements were carried out according to established methods.

[2] = Planta Med. 31, 214-220 (1977); cited from earlier work
[3] = system: insulin receptors; experiment: 125I-insulin binding to erythrocytes of brazilin treated diabetic mice
Experimental: For interpreting these findings, further tests were made with the aim to find out whether brazilin changes the affinity of the insulin receptors or can possibly increase the number of the insulin receptors.
From the laboratory animals of the above-mentioned control group (diabetic mice) and the test group (diabetic brazilin treated mice) erythrocytes (2.6×10^9 /ml) were taken, ^125 I-insulin was bound thereto (85 pM^125 I), and thereupon incubated in the presence of increasing amounts of unlabelled insulin (32 pM to 1.8 / μm) at 15° C. for 120 min. The amount of specifically bound ^125 I-insulin was then determined by subtracting the non-specifically bound insulin (10 ng/ml). The results obtained are shown in the graph of FIG. 6.

[4] = system: erythropoesis; experiment: Effect on erythropoesis; parameters: species or system rats; conditions: rat, in vivo
Experimental: (§1) For administering brazilin, the laboratory animals were daily injected intraperitoneally with a dose of 100 mg of brazilin per kg body weight for 10 days. For inducing diabetes, a dose of 175 mg of alloxan per kg body weight was administered intraperitoneally.

[5] = system: lysosomal glycosidases; experiment: Normalizing effect on lysosomal glycosidases (overall); type: in vivo; conditions: kidney, diabetic mice
Source text: Possibly, the lysosomal glycosidases active in the kidneys are involved in the micro-angiopathy accompanying diabetes mellitus. Therefore, the lysosomal glycosidase activities upon administration of brazilin and full extract were examined.
A number of mice was divided into three groups. Group I, which was used as control group, remained untreated. To the rest of the mice diabetes was induced by administering alloxan. Part of these diabetic mice remained untreated (diabetic control group II); to the rest of the diabetic mice a dose of 100 mg of brazilin per kg body weight was administered daily. After a test period of 10 and 30 days, respectively, kidney tissue was taken from the laboratory animals and the enzyme fraction was determined. In particular, incubation was carried out for 30 min at 37° C., the reaction was stopped by adding 0.05M glycine-NaOH buffer solution (pH 10.4), centrifugation was carried out at 3000 U/min for 10 min, and the amount of p-nitrophenol formed per min and per mg of protein was determined spectrophotometrically at 410 nm at the supernatant.

[6] = system: thrombin stimulated platelets; experiment: Malon dialdehyde (MDA) production by thrombin stimulated platelets; type: in vivo, rats
Source text: Thromboxane A2 is the potent substance inducing platelet aggregation. MDA is formed through the same enzyme system as thromboxane A2. Inhibition of MDA production may be due to the following factors:
If an inhibiting action on MDA is detectable but no significant influence on the prostacyclin production can be detected, a selective inhibiting action on thromboxane A2 may be inferred.
Rats were divided into four test groups, viz.
Group B: Normal rats (8 laboratory animals) to which an aqueous brazilin solution (comprising 110 mg of brazilin per kg body weight) was daily administered from the 20th to the 30th day
Group D: Diabetic rats (10 laboratory animals); for inducing diabetes, a dose of 70 mg of streptozotocin per kg body weight in 0.1M citrate buffer solution (pH 4.0) was administered intraperitoneally to normal rats on the 1st test day. From the 20th to the 30th day of the test aqueous brazilin solution (comprising 110 mg of brazilin per kg body weight) was daily administered orally to these diabetic rats. (Instead of an aqueous brazilin solution, the same amount of distilled water was administered to the laboratory animals of the groups A and C from the 20th to the 30th day.)
After expiration of the 30th test day, the test animals were sacrificed, and the MDA production was determined by means of thrombin stimulated platelets.

[7] = system: platelet aggregation in diabetic human plasma; experiment: Platelet aggregation in diabetic human plasma induced by ADP; type: cell-based
Experimental: The platelet aggregation was determined by a tubimetric method in a dual-channel aggregometer, assuming that a platelet-poor plasma represented 100% aggregation and that a platelet-rich plasma represented 0% aggregation. Each aggregometer tube was charged with 40 μl of platelet-rich plasma and 50 μl of test sample solution. The mixture was incubated at 37° C. for 2 min., whereupon 50 μl of ADP solution were added. Percent inhibition of the platelet aggregation caused by the test sample solution was calculated as follows: [formula]

[8] = Rev. Latinoam. Microbiol. 1, 225-232 (1958); cited from earlier work
[9] = system: erythrocyte deformability; experiment: Erythrocyte deformability (filtration rate of blood); type: in vivo, rats
Experimental: Increased blood viscosity and reduced erythrocyte deformability are typical pathological states of diabetic subjects. The effect of brazilin administration to diabetic laboratory animals (rats) on the blood viscosity and erythrocyte deformability of these animals was examined.
as §1
For determining the erythrocyte deformability, the filtration rate of blood of the various laboratory animals containing approximately 4.9×10^12 erythrocytes per l was determined under common, standardized conditions.

Compound: Oc1ccc2c(c1)OC[C@]1(O)Cc3cc(O)c(O)cc3[C@H]21 [brazilin]
- effect on the production of free fatty acids ([1]; basal and insulin stimulated): In none of the two cases additional administration of brazilin has any significant effect
- restoration of initial production of esterified lipids, basal ([1]; diabetic rats + brazilin): 24.7%
- restoration of initial production of esterified lipids, insulin stimulated ([1]; diabetic rats + brazilin, insulin 25 ng/ml): 19.8%
- Glucose→FFA (free fatty acids), basal ([1]; diabetic rats + brazilin, n=6, not significant vs diabetic control, diabetic 2.60, normal 3.18): 1.83 ± 0.43 nmol/100 mg tissue/120 min
- Glucose→E.L. (esterified lipids), basal ([1]; diabetic rats + brazilin, n=10, P < 0.01 vs. diabetic control, diabetic 78.8, normal 220.8): 113.9 ± 9.5 nmol/100 mg tissue/120 min
- Glucose→FFA (free fatty acids), insulin stimulated ([1]; insulin 25 ng/ml, n=6, not significant vs diabetic control, diabetic 3.73, normal 8.42): 3.39 ± 0.76 nmol/100 mg tissue/120 min
- Glucose→E.L. (esterified lipids), insulin stimulated ([1]; insulin 25 ng/ml, n=9, P < 0.1 vs diabetic control, diabetic 276.5, normal 528.0): 326.2 ± 18.4 nmol/100 mg tissue/120 min
- anti-inflammatory effect [2]: anti-inflammatory effect
- affinity of the insulin receptors ([3]; erythrocytes, 15° C., 120 min, treated vs. control (FIGS. 6, 7)): no significant affinity differences
- number of insulin receptors ([3]; peripheral erythrocytes, treated vs. control): increase of the number of the peripheral insulin receptors
- effect on erythropoesis [4]: no effect on erythropoesis
- effect on the lysosomal glycosidase activity [5]: normalizing effect
- MDA ([6]; Group B, thrombin 0,2 I. un., normal control 4.16): 0.58 ± 0.30 nmol/10 platelets
- MDA ([6]; Group B, thrombin 1,0 I. un., normal control 2.46): 1.02 ± 0.48 nmol/10 platelets
- MDA ([6]; Group D, thrombin 0,2 I. un., diabetic control 2.86): 0.76 ± 0.21 nmol/10 platelets
- MDA ([6]; Group D, thrombin 1,0 I. un., diabetic control 3.38): 1.10 ± 0.31 nmol/10 platelets
- MDA ([6]; normal rats + brazilin 110 mg/kg daily (Group B), thrombin 5,0 I. un., normal control 5.16): 2.20 ± 0.58 nmol/10 platelets
- inhibition of MDA production ([6]; rats, 110 mg/kg daily): inhibiting effect on MDA production
- T/min, Aggregation (first value) ([7]; 10^-3 M, control 78.7): 8.75%
- Tmax, Aggregation (first value) ([7]; 10^-3 M, control 78.7): 46.3%
- Tmax, Aggregation (first value) ([7]; 10^-4 M, control 78.7): 70.0%
- activity at 1000 µM ([7]; Homo sapiens, Platelet, 10^-3 M, control 100, read-out: Tmax, Aggregation relative to control (second value)): 58.8%
- inhibition at 1000 µM ([7]; Homo sapiens, Platelet, 10^-3 M, read-out: T/min, Inhibition): 88.9%
- inhibition at 1000 µM ([7]; Homo sapiens, Platelet, 10^-3 M, read-out: Tmax, Inhibition): 41.2%
- activity at 100 µM ([7]; Homo sapiens, Platelet, 10^-4 M, control 100, read-out: Tmax, Aggregation relative to control (second value)): 88.9%
- inhibition at 100 µM ([7]; Homo sapiens, Platelet, 10^-4 M, read-out: Tmax, Inhibition): 11.1%
- inhibition of the platelet aggregation ([7]; conclusion on Tables 12 and 13): considerable inhibition of the platelet aggregation
- antibacterial effect [8]: antibacterial effect
- Filtration rate ([9]; alloxan diabetic rats + brazilin, P < 0.01 vs. untreated and vs. diabetic control (17.4)): 19.6 ± 0.4 mL/min
- effect on filtration rate of diabetic animals ([9]; diabetic rats + brazilin): significant increase of the filtration rate
- effect on erythrocyte deformability ([9]; diabetic rats vs. control group): significant increase of the erythrocyte deformability
- Filtration rate ([9]; normal rats + brazilin 100 mg/kg i.p. 10 days, normal 22.9): 23.1 ± 0.3 mL/min
- effect on filtration rate of normal animals ([9]; untreated control group + brazilin): did not signficantly influence the filtration rate
